Experimental data as given in ChEMBL document CHEMBL1201862, “PubChem BioAssay data set” (2004).
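Each compound was tested at five concentrations against cells in 96-well plates for 48 hours. GI50 marks 50% less growth.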 The source made the active and inactive calls. Rule as the data show it: active = GI50 up to about 1.1 µM and inactive = higher.

What was measured:
Assay in all cases: NCI-60 cell line screen, 48 h
HL-60 = system: HL-60
OVCAR-3 = system: OVCAR-3
PC-3 = system: PC-3
OVCAR-5 = system: OVCAR-5
HOP-62 = system: HOP-62
HCT-116 = system: HCT-116
MDA-MB-435 = system: MDA-MB-435
NCI-H23 = system: NCI-H23
MDA-N = system: MDA-N
LOX IMVI = system: LOX IMVI
KM12 = system: KM12
SK-MEL-28 = system: SK-MEL-28
MOLT-4 = system: MOLT-4
IGROV-1 = system: IGROV-1
UACC-257 = system: UACC-257
NCI-H522 = system: NCI-H522
CAKI-1 = system: CAKI-1
ACHN = system: ACHN
SNB-75 = system: SNB-75
Malme-3M = system: Malme-3M

Measured: GI50

Cn1c(Nc2ccccc2)c(/C=N\c2ccccc2)c(=O)n(C)c1=O
inactive: HL-60 > 100 µM | OVCAR-3 > 100 µM | PC-3 > 100 µM | OVCAR-5 > 100 µM | HOP-62 22.5 µM | HCT-116 48.2 µM | MDA-MB-435 > 100 µM | NCI-H23 82.6 µM | MDA-N > 100 µM | LOX IMVI 36.4 µM | KM12 97.7 µM | SK-MEL-28 > 100 µM | MOLT-4 61.5 µM | IGROV-1 38.3 µM | UACC-257 > 100 µM

CC1=CCC2CC1NC(=O)CCOCCC(=O)NC2(C)C (centres undefined)
inactive: NCI-H522 > 100 µM | PC-3 > 100 µM | OVCAR-5 > 100 µM | HCT-116 > 100 µM | MDA-MB-435 > 100 µM | NCI-H23 > 100 µM | CAKI-1 > 100 µM | ACHN > 100 µM | MDA-N > 100 µM | LOX IMVI > 100 µM | KM12 > 100 µM | SK-MEL-28 > 100 µM | MOLT-4 > 100 µM | UACC-257 > 100 µM

Nc1nc2c(ncn2Cc2ccccc2CO)c(=O)[nH]1
inactive: NCI-H522 > 100 µM | HL-60 > 100 µM | OVCAR-3 > 100 µM | PC-3 > 100 µM | OVCAR-5 > 100 µM | HOP-62 > 100 µM | SNB-75 > 100 µM | HCT-116 > 100 µM | MDA-MB-435 > 100 µM | NCI-H23 > 100 µM | CAKI-1 > 100 µM | ACHN > 100 µM | LOX IMVI > 100 µM | KM12 > 100 µM | SK-MEL-28 > 100 µM | MOLT-4 > 100 µM | IGROV-1 > 100 µM | UACC-257 > 100 µM | Malme-3M > 100 µM

CCOC(=O)C1CSCCSC1
inactive: NCI-H522 > 100 µM | PC-3 > 100 µM | SNB-75 43 µM | HCT-116 > 100 µM | MDA-MB-435 > 100 µM | NCI-H23 > 100 µM | ACHN > 100 µM | MDA-N > 100 µM | LOX IMVI > 100 µM | KM12 > 100 µM | SK-MEL-28 > 100 µM | MOLT-4 > 100 µM | UACC-257 > 100 µM

Cc1cc(NC(=O)C(=O)Cc2cnc3ccccc3n2)c(S(=O)(=O)O)cc1Cl
inactive: NCI-H522 > 100 µM | HL-60 > 100 µM | OVCAR-3 > 100 µM | PC-3 > 100 µM | OVCAR-5 > 100 µM | SNB-75 > 100 µM | HCT-116 > 100 µM | MDA-MB-435 > 100 µM | NCI-H23 > 100 µM | CAKI-1 > 100 µM | ACHN > 100 µM | LOX IMVI > 100 µM | KM12 > 100 µM | SK-MEL-28 > 100 µM | MOLT-4 > 100 µM | IGROV-1 > 100 µM | UACC-257 > 100 µM | Malme-3M > 100 µM

COc1ccc(OC)c(C(=O)c2cccc(C(=O)c3cc(OC)ccc3OC)n2)c1
inactive: NCI-H522 29.8 µM | HL-60 18.5 µM | PC-3 33.6 µM | OVCAR-5 30.5 µM | HOP-62 37.1 µM | SNB-75 19.9 µM | HCT-116 43.9 µM | NCI-H23 20 µM | CAKI-1 71.8 µM | ACHN 43.5 µM | MDA-N 17 µM | LOX IMVI 25.5 µM | KM12 33.9 µM | SK-MEL-28 41 µM | MOLT-4 30.8 µM | IGROV-1 38.8 µM | UACC-257 53.2 µM | Malme-3M 80 µM

CCCCCCCCCCCCCCCCNc1ccn(C2CC(OP(=O)(O)OCC3OC(n4cc(CC)c(=O)[nH]c4=O)CC3O)C(CO)O2)c(=O)n1 (centres undefined)
inactive: NCI-H522 36.4 µM | HL-60 4.66 µM | OVCAR-3 38.3 µM | PC-3 18.5 µM | OVCAR-5 23.9 µM | HOP-62 23.4 µM | SNB-75 23.3 µM | HCT-116 50.1 µM | MDA-MB-435 46.9 µM | NCI-H23 34.6 µM | CAKI-1 42.9 µM | ACHN 42.8 µM | LOX IMVI 44.7 µM | KM12 15.7 µM | SK-MEL-28 21.4 µM | MOLT-4 20.3 µM | IGROV-1 41.5 µM | UACC-257 30.3 µM

CC1(C)OC[C@@H]([C@@]2(COC(c3ccccc3)(c3ccccc3)c3ccccc3)CC=CC(=O)O2)O1
inactive: NCI-H522 18.4 µM | HL-60 33.7 µM | OVCAR-3 35.2 µM | PC-3 41.3 µM | OVCAR-5 42.9 µM | HOP-62 38.5 µM | SNB-75 14.2 µM | HCT-116 30.3 µM | MDA-MB-435 33.1 µM | NCI-H23 42.1 µM | CAKI-1 30.6 µM | ACHN 30.5 µM | LOX IMVI 32.4 µM | KM12 27.9 µM | SK-MEL-28 32 µM | MOLT-4 28.3 µM | UACC-257 43.5 µM | Malme-3M 24.7 µM

O=C(NC(=S)NC(=O)c1cc(O)c(O)c(O)c1)c1cc(O)c(O)c(O)c1
inactive: NCI-H522 22.7 µM | PC-3 19.7 µM | OVCAR-5 27 µM | HCT-116 20.4 µM | MDA-MB-435 7.93 µM | NCI-H23 23.7 µM | CAKI-1 21.1 µM | ACHN 23 µM | MDA-N 2.65 µM | LOX IMVI 12.8 µM | KM12 24.5 µM | SK-MEL-28 27.8 µM | MOLT-4 > 10 µM | UACC-257 22.3 µM

COc1ccc(-c2cc(-c3ccc(Nc4ccnc5cc(Cl)ccc45)cc3)[nH]c(=O)c2C#N)cc1
inactive: NCI-H522 > 100 µM | HL-60 > 100 µM | OVCAR-3 > 100 µM | PC-3 > 100 µM | OVCAR-5 > 100 µM | HOP-62 80 µM | SNB-75 > 100 µM | HCT-116 > 100 µM | MDA-MB-435 > 100 µM | NCI-H23 > 100 µM | CAKI-1 > 100 µM | ACHN > 100 µM | LOX IMVI > 100 µM | KM12 2.86 µM | SK-MEL-28 > 100 µM | MOLT-4 > 100 µM | IGROV-1 > 100 µM | Malme-3M > 100 µM

CCOC(=O)C1=CNC(C(=O)OCC)C1c1cccn1-c1ccccc1 (centres undefined)
inactive: NCI-H522 21.3 µM | OVCAR-3 26.1 µM | PC-3 18.8 µM | OVCAR-5 52.1 µM | HOP-62 58.3 µM | SNB-75 21.4 µM | HCT-116 23.6 µM | MDA-MB-435 21.2 µM | NCI-H23 37.7 µM | CAKI-1 32.6 µM | ACHN 30.5 µM | MDA-N 20 µM | LOX IMVI 16.6 µM | KM12 30.8 µM | SK-MEL-28 28.1 µM | MOLT-4 19.8 µM | IGROV-1 33 µM | UACC-257 35.7 µM

O=c1c2ccc(S(=O)(=O)c3ccc4c(=O)n5c6ccccc6nc5c5cccc3c45)c3cccc(c32)c2nc3ccccc3n12
inactive: NCI-H522 27.7 µM | OVCAR-3 > 100 µM | PC-3 > 100 µM | OVCAR-5 > 100 µM | HOP-62 37.8 µM | HCT-116 > 100 µM | MDA-MB-435 > 100 µM | NCI-H23 96.6 µM | CAKI-1 > 100 µM | ACHN 15.2 µM | LOX IMVI > 100 µM | KM12 > 100 µM | SK-MEL-28 > 100 µM | IGROV-1 1.98 µM | UACC-257 > 100 µM | Malme-3M > 100 µM
